Source: ChEMBL document CHEMBL4130554, “Inducing Secondary Metabolite Production by Combined Culture of Talaromyces aculeatus and Penicillium variabile” (J Nat Prod, 2017)

How the values were obtained:
HL-60 = assay: Cytotoxicity against human HL60 cells by MTT method
HCT-116 = assay: Cytotoxicity against human HCT116 cells by SRB method
A549 = assay: Cytotoxicity against human A549 cells by SRB method
HeLa = assay: Cytotoxicity against human HeLa cells by SRB method; assay type: functional, cell-based
K562 = assay: Cytotoxicity against human K562 cells by MTT method; assay type: functional, cell-based
MCF7 = assay: Cytotoxicity against human MCF7 cells by SRB method; assay type: functional, cell-based

CC[C@H](C)/C=C/C=C(\C)C[C@@H](C)/C=C/C=C/[C@H]1OC(=O)C=C[C@]1(C)O showed an IC50 (HL-60) of 1.2 µM, an IC50 (HCT-116) of 1.4 µM and an IC50 (A549) of 5.1 µM. It also gave an IC50 (HeLa) of 5.5 µM, an IC50 (K562) of 2.9 µM and an IC50 (MCF7) of 9.8 µM.

CC[C@H](C)/C=C/C=C(\C)C[C@@H](C)/C=C/C=C/[C@@H]1O[C@@H](C(=O)OC)[C@@H]2O[C@]12C showed an IC50 (HL-60) greater than 50 µM, an IC50 (HCT-116) greater than 50 µM and an IC50 (A549) greater than 50 µM. The IC50 (HeLa) was greater than 50 µM, the IC50 (K562) was greater than 50 µM and the IC50 (MCF7) was greater than 50 µM.

CC[C@@H](/C=C/C=C(\C)C[C@@H](C)/C=C/C=C/[C@@H]1O[C@@H](C(=O)OC)[C@@H]2O[C@]12C)CO showed an IC50 (HL-60) greater than 50 µM, an IC50 (HCT-116) greater than 50 µM and an IC50 (A549) greater than 50 µM. It also gave an IC50 (HeLa) greater than 50 µM, an IC50 (K562) greater than 50 µM and an IC50 (MCF7) greater than 50 µM.

For COc1cccc2c1C(=O)c1c(O)c3c(c(O)c1C2=O)C[C@@](O)(C(=O)CO)C[C@@H]3O[C@H]1C[C@H](N)[C@H](O)[C@H](C)O1 [DOXORUBICIN], the IC50 (HeLa) was 0.5 µM, the IC50 (K562) was 0.6 µM and the IC50 (MCF7) was 0.6 µM.

CC[C@H](C)/C=C/C=C(\C)C[C@@H](C)/C=C/C=C/[C@H]1OC(=O)[C@H](O)[C@@H]2O[C@]12C gave an IC50 (HL-60) greater than 50 µM, an IC50 (HCT-116) greater than 50 µM and an IC50 (A549) greater than 50 µM. The IC50 (HeLa) was greater than 50 µM, the IC50 (K562) was greater than 50 µM and the IC50 (MCF7) was greater than 50 µM.

COC(=O)[C@@H]1O[C@@H](/C=C/C=C/[C@H](C)C/C(C)=C/C=C/[C@@H](C)CCO)[C@@]2(C)O[C@@H]12 was tested, and the IC50 (HL-60) was greater than 50 µM, the IC50 (HCT-116) was greater than 50 µM and the IC50 (A549) was greater than 50 µM. For the same compound, the IC50 (HeLa) was greater than 50 µM, the IC50 (K562) was greater than 50 µM and the IC50 (MCF7) was greater than 50 µM.
